Measurements: ChEMBL document CHEMBL4251650, “Design and synthesis of 2-(4,5,6,7-tetrahydrothienopyridin-2-yl)-benzoimidazole carboxamides as novel orally efficacious Poly(ADP-ribose)polymerase (PARP) inhibitors” (Eur J Med Chem, 2018)

Columns and labels:
[1] = Solubility of the compound in pH 6.8 solution; type: physicochemical
[2] = Solubility of the compound in pH 7.4 solution; type: physicochemical
[3] = Intrinsic clearance in mouse liver microsomes; type: ADME, microsome; conditions: read-out: CLH
[4] = Intrinsic clearance in human liver microsomes; type: ADME, microsome; conditions: read-out: CLH
[5] = Solubility of the compound in pH 7 solution; type: physicochemical
[6] = Permeability across apical to basolateral side in human Caco2 cells; type: ADME, cell-based; conditions: Caco-2, read-out: permeability
[7] = Intrinsic clearance in rat liver microsomes; type: ADME, microsome; conditions: read-out: CLH
[8] = Cmax in Sprague-Dawley rat at 10 mg/kg, po administered as single dose by LC-MS/MS analysis; type: ADME, organism-based; set-up: dose 10 mg/kg, route oral; conditions: in vivo
[9] = Half life in Sprague-Dawley rat at 5 mg/kg, iv administered as single dose by LC-MS/MS analysis; type: ADME, organism-based; conditions: in vivo
[10] = AUC (0 to infinity) in Sprague-Dawley rat at 10 mg/kg, po administered as single dose by LC-MS/MS analysis; type: ADME, organism-based; set-up: dose 10 mg/kg, time infinity, route oral; conditions: in vivo
[11] = Tmax in Sprague-Dawley rat at 10 mg/kg, po administered as single dose by LC-MS/MS analysis; type: ADME, organism-based; conditions: in vivo
[12] = Volume of distribution at steady state in Sprague-Dawley rat at 5 mg/kg, iv administered as single dose by LC-MS/MS analysis; type: ADME, organism-based; conditions: in vivo, read-out: Vdss
[13] = Oral bioavailability in Sprague-Dawley rat at 10 mg/kg administered as single dose by LC-MS/MS analysis; type: ADME, organism-based; conditions: in vivo
[14] = Clearance in Sprague-Dawley rat at 5 mg/kg, iv administered as single dose by LC-MS/MS analysis; type: ADME, organism-based; conditions: in vivo

solubility [1] [µM] | solubility [2] [µM] | microsomal CLint [3] [µL/min/mg] | microsomal CLint [4] [µL/min/mg] | solubility [5] [µM] | Papp A→B [6] [nm/s] | microsomal CLint [7] [µL/min/mg] | Cmax [8] [µg/mL] | half-life [9] [h] | AUC(0-inf) [10] [µg·h/mL] | Tmax [11] [h] | Vd [12] [L/kg] | bioavailability [13] [%] | clearance [14] [L/h/kg] | Structure (SMILES)
> 50 | > 50 | 75 | 28 | > 50 | 26.5 | 196 |  |  |  |  |  |  |  | Cn1c(-c2cc3c(s2)CNCC3)nc2c(C(N)=O)cc(F)cc21
> 50 | > 50 | 123 | 23 | > 50 | 2 | 340 |  |  |  |  |  |  |  | NC(=O)c1cc(F)cc2[nH]c(-c3cc4c(s3)CNCC4)nc12
 |  |  |  |  |  |  | 0.0612 | 0.89 | 0.245 | 2.25 | 13.2 | 26 | 11.6 | Cl.Cn1c(-c2cc3c(s2)CNCC3)nc2c(C(N)=O)cc(F)cc21
